Results published in patent publication US7294189B2, “Wax emulsion preservative compositions and method of manufacture” (Hexion Specialty Chemicals, Inc., priority 2002, dated 2007).
Entries after “also recorded” stand apart in the source; their conditions may differ.

How the values were obtained:
[1] = test system: mold cultures; test: ASTM D3273 four week mold resistance test of gypsum product made with wax emulsion containing thiabendazole; conditions: 0.2% thiabendazole post-added to wax emulsion; closed chamber with potting soil and mold cultures, about 90° F., relative humidity 95% to 98%; first weeks of the test
Experimental: A wax emulsion formulation was prepared with the following components: G Wax (a paraffin wax) 33%, Montan wax 3.3%, alkyl phenol 0.5%, Disal 0.5%, potassium hydroxide 0.75%, ammonium hepta molybdonate 0.01%, starch 0.09%, polyfon H (lignosulfonic acid, sodium salt) 0.5%, water 61.35%. To this wax emulsion was post-added 0.2% thiabendazole, commercially available from Supreme Chemical of Cumming, Ga. under the trade designation MC-2. The wax emulsion was used to prepare a gypsum product. The resulting gypsum product was tested according to ASTM D3273. During this four week test, a sample of the subject material, such as a gypsum board, is placed in a closed chamber along with potting soil and mold cultures at a constant temperature of about 90° F. (32.2° C.) and relative humidity of 95% to 98%. The condition of the test sample is monitored weekly to determine the extent, if any, of mold growth.

[2] = test system: biological growth; test: Biological growth on particle board coupons (urea-formaldehyde binder) made with test emulsions, placed in various environments; conditions: emulsions with 1% or 2% thiabendazole by weight of the wax; emulsion 0.4% solids by weight of furnish; soaked and non-soaked coupons; constant humidity, rooftop, warehouse, laboratory; after six weeks (control coupons showed growth after first week)
Experimental: In other tests, test emulsions as described above was used to prepare sample particle board coupons comprising a urea-formaldehyde binder. Some test emulsions contained 1% thiabendazole, others 2%, by weight of the wax in the emulsions. The emulsion was added to the furnish from which the coupons were formed in an amount of 0.4% solids, by weight of the furnish. Some of the coupons were soaked in water for twenty-four hours before testing. For the test, various soaked and non-soaked coupons were placed in various environments including constant humidity conditions (72° F. (22.2° C.), 72% relative humidity (RH)), outdoor rooftop environmental conditions (exposed to air but shielded from direct impingement by precipitation); and indoors in an uncontrolled warehouse and in a laboratory environment, beside a water bath. Control coupons prepared and treated similarly were also place in these environments.

For `c1ccc2[nH]c(-c3cscn3)nc2c1` [thiabendazole, 2-(4′-thiazolyl) benzimidazole], the “biological (mold) growth on gypsum product” value [1] was “effective in inhibiting the growth of biological agents on gypsum board; also recorded: no biological growth” and the “visible biological growth on particle board coupons” value [2] was “none of the sample coupons made with thiabendazole had any visible growth”.
